What all share (assay type): in vivo
Series [1] relates to Green Peach Aphid ("GPA") (Myzus persicae), wingless adult and nymph stages. The experiment in a line: Bioassay on green peach aphid (GPA), foliar spray on infested cabbage seedlings. The following applies: for pest or weed control at 200 µg/mL: Myzus persicae, foliar, 72 h, read-out: GPA (Biological Results, rating). As to the method:
Certain molecules disclosed in this document were tested against GPA using procedures described in the following example. In the reporting of the results, the “GPA Rating Table” was used (See Table Section).
Cabbage seedlings grown in 3-inch pots, with 2-3 small (3-5 cm) true leaves, were used as test substrate. The seedlings were infested with 20-50 GPA (wingless adult and nymph stages) one day prior to chemical application. Four pots with individual seedlings were used for each treatment. Test compounds (2 mg) were dissolved in 2 mL of acetone/methanol (1:1) solvent, forming stock solutions of 1000 ppm test compound. […] A hand-held aspirator-type sprayer was used for spraying a solution to both sides of […] leaves until runoff. Reference plants (solvent check) were sprayed with the diluent only containing 20% by volume of acetone/methanol (1:1) solvent. Treated plants were held in a holding room for three days at approximately 25° C. and ambient relative humidity (RH) prior to grading. Evaluation was conducted by counting the number of live aphids per plant under a microscope.
Corrected % Control=100*(X−Y)/X • where • X=No. of live aphids on solvent check plants and • Y=No. of live aphids on treated plants
The results are indicated in the table entitled “Table ABC: Biological Results” (See Table Section).

The test system of series [2] is Beet Armyworm (Spodoptera exigua) ("BAW"), second instar larvae. The experiment in a line: Bioassay on beet armyworm (BAW), 128-well diet tray assay. The following applies: for pest or weed control at 50 µg/cm2: Spodoptera exigua, read-out: BAW (Biological Results, rating); for BAW rating: Table ABC, species BAW, C = not tested, D = no activity noticed. The method in brief: (§1)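 Sealed trays, 25° C., 14:10 light:dark, 5–7 d. Per-well % mortality recorded, mean of eight wells reported.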

Series [3] deals with Cabbage Looper (Trichoplusia ni) ("CL"), second instar larvae. The experiment in a line: Bioassay on cabbage looper (CL), 128-well diet tray assay. The note with it: for pest or weed control at 50 µg/cm2: Trichoplusia ni, read-out: CL (Biological Results, rating); for CL rating: Table ABC, species CL, C = not tested, D = no activity noticed. The method in brief:
as §1

The record followed here is US20230077362A1 (CORTEVA AGRISCIENCE LLC, priority 2019, published 2023).

With `Cc1ccc(C(F)(F)F)c(N2C(=O)C(Cl)S/C2=N\C(=O)NCC(F)c2ccc(-c3ncn(-c4ccc(OC(F)(F)F)cc4)n3)cc2)c1` (stereo not shown) [Compound H7], the pest or weed control at 200 µg/mL in series [1] was in the range of 0 to 80%. Also, the pest or weed control at 50 µg/cm2 in series [2] and in series [3] was 50 to 100% in each case.

Regarding `COc1ccc(CC(F)(F)F)c(N2C(=O)CS/C2=N\C(=O)NCC(F)c2ccc(-c3ncn(-c4ccc(OC(F)(F)F)cc4)n3)cc2)c1` (stereo not shown) [Compound H14], the pest or weed control at 200 µg/mL in series [1] lay within 0 to 80%. In addition, the pest or weed control at 50 µg/cm2 in series [2] and in series [3] was 50 to 100% each time.

As for `Cc1ccc(C(C)C)c(N2C(=O)CS/C2=N\C(=O)Nc2ccc(-c3ncn(-c4ccc(OC(F)(F)F)cc4)n3)cc2C)c1` [Compound J1, (Z)-1-(3-(2-isopropyl-5-methylphenyl)-4-oxothiazolidin-2-ylidene)-3-(2-methyl-4-(1-(4-(trifluoromethoxy)phenyl)-1H-1,2,4-triazol-3-yl)phenyl)urea], the pest or weed control at 200 µg/mL in series [1] fell in the range of 0 to 80%. Moreover, the pest or weed control at 50 µg/cm2 in series [2] and in series [3] was 50 to 100% throughout.

For the molecule `Cc1ccc(C(C)C)c(N2C(=O)CS/C2=N\C(=O)Nc2ccc(-c3ncn(-c4ccc(OC(F)(F)F)cc4)n3)cc2F)c1` [Compound J19, (Z)-1-(2-Fluoro-4-(1-(4-(trifluoromethoxy)phenyl)-1H-1,2,4-triazol-3-yl)phenyl)-3-(3-(2-isopropyl-5-methylphenyl)-4-oxothiazolidin-2-ylidene)urea], the pest or weed control at 200 µg/mL in series [1] was in the range of 0 to 80%. The pest or weed control at 50 µg/cm2 in series [2] and in series [3] was 50 to 100% each time.

Take `Cc1ccc(C(C)C)c(N2C(=O)C(Cl)S/C2=N\C(=O)Nc2ccc(-c3ncn(-c4ccc(OC(F)(F)F)cc4)n3)cc2F)c1` (stereo not shown) [Compound J32, (Z)-1-(5-chloro-3-(2-isopropyl-5-methylphenyl)-4-oxothiazolidin-2-ylidene)-3-(2-fluoro-4-(1-(4-(trifluoromethoxy)phenyl)-1H-1,2,4-triazol-3-yl)phenyl)urea]: the pest or weed control at 200 µg/mL in series [1] lay in the range of 0 to 80%. For the same molecule, the pest or weed control at 50 µg/cm2 in series [2] and in series [3] was 50 to 100% in each case.

Turning to `Cc1ccc(OCCC(F)(F)F)c(N2C(=O)CS/C2=N\C(=O)Nc2ccc(-c3ncn(-c4ccc(OC(F)(F)F)cc4)n3)cc2F)c1` [Compound J35, (Z)-1-(2-Fluoro-4-(1-(4-(trifluoromethoxy)phenyl)-1H-1,2,4-triazol-3-yl)phenyl)-3-(3-(5-methyl-2-(3,3,3-trifluoropropoxy)phenyl)-4-oxothiazolidin-2-ylidene)urea], in series [1], the pest or weed control at 200 µg/mL was in the range of 0 to 80%. For the same molecule, the pest or weed control at 50 µg/cm2 in series [2] and in series [3] was 50 to 100% in each case.

On to `CCCc1ccc(C)cc1N1C(=O)CS/C1=N\C(=O)Nc1ccc(-c2ncn(-c3ccc(OC(F)(F)F)cc3)n2)cc1F` [Compound J41, (Z)-1-(2-Fluoro-4-(1-(4-(trifluoromethoxy)phenyl)-1H-1,2,4-triazol-3-yl)phenyl)-3-(3-(5-methyl-2-propylphenyl)-4-oxothiazolidin-2-ylidene)urea], for which, in series [1], the pest or weed control at 200 µg/mL was in the range of 0 to 80%.

In the case of `COCc1ccc(C)cc1N1C(=O)CS/C1=N\C(=O)Nc1ccc(-c2ncn(-c3ccc(OC(F)(F)F)cc3)n2)cc1F` [Compound J66, (Z)-1-(2-Fluoro-4-(1-(4-(trifluoromethoxy)phenyl)-1H-1,2,4-triazol-3-yl)phenyl)-3-(3-(2-(methoxymethyl)-5-methylphenyl)-4-oxothiazolidin-2-ylidene)urea], the pest or weed control at 200 µg/mL in series [1] is 0 to 80%. The pest or weed control at 50 µg/cm2 in series [2] and in series [3] was 50 to 100% throughout.

For `CCc1cc(-c2ncn(-c3ccc(OC(F)(F)F)cc3)n2)ccc1NC(=O)/N=C1\SCC(=O)N1c1cc(C)ccc1C(C)C` [Compound J70, (Z)-1-(2-Ethyl-4-(1-(4-(trifluoromethoxy)phenyl)-1H-1,2,4-triazol-3-yl)phenyl)-3-(3-(2-isopropyl-5-methylphenyl)-4-oxothiazolidin-2-ylidene)urea], in series [1], the pest or weed control at 200 µg/mL lay within 0 to 80%. The pest or weed control at 50 µg/cm2 in series [2] and in series [3] was 50 to 100% throughout.

Turning to `CCc1cc(-c2ncn(-c3ccc(OC(F)(F)F)cc3)n2)ccc1NC(=O)/N=C1\SCC(=O)N1c1cc(OC)ccc1C(C)C` [Compound J71, (Z)-1-(2-Ethyl-4-(1-(4-(trifluoromethoxy)phenyl)-1H-1,2,4-triazol-3-yl)phenyl)-3-(3-(2-isopropyl-5-methoxyphenyl)-4-oxothiazolidin-2-ylidene)urea], the pest or weed control at 200 µg/mL in series [1] lay within 0 to 80%. Moreover, the pest or weed control at 50 µg/cm2 in series [2] and in series [3] was 50 to 100% in each case.

For the molecule `CCc1cc(-c2ncn(-c3ccc(OC(F)(F)F)cc3)n2)ccc1NC(=O)/N=C1\SCC(=O)N1c1cc(C)ccc1COC` [Compound J72, (Z)-1-(2-Ethyl-4-(1-(4-(trifluoromethoxy)phenyl)-1H-1,2,4-triazol-3-yl)phenyl)-3-(3-(2-(methoxymethyl)-5-methylphenyl)-4-oxothiazolidin-2-ylidene)urea], in series [1], the pest or weed control at 200 µg/mL was in the range of 0 to 80%. Further, the pest or weed control at 50 µg/cm2 in series [2] and in series [3] was 50 to 100% in each case.

On to `CCc1cc(-c2ncn(-c3ccc(OC(F)(F)F)cc3)n2)ccc1NC(=O)/N=C1\SCC(=O)N1c1cc(C)ccc1OCCC(F)(F)F` [Compound J73, (Z)-1-(2-Ethyl-4-(1-(4-(trifluoromethoxy)phenyl)-1H-1,2,4-triazol-3-yl)phenyl)-3-(3-(5-methyl-2-(3,3,3-trifluoropropoxy)phenyl)-4-oxothiazolidin-2-ylidene)urea], for which the pest or weed control at 200 µg/mL in series [1] lay in the range of 0 to 80%. Besides, the pest or weed control at 50 µg/cm2 in series [2] and in series [3] was 50 to 100% each time.

`CCc1cc(-c2ncn(-c3ccc(OC(F)(F)F)cc3)n2)ccc1NC(=O)/N=C1\SCC(=O)N1c1cc(C)ccc1C(C)OC` (stereo not shown) [Compound J74, (Z)-1-(2-Ethyl-4-(1-(4-(trifluoromethoxy)phenyl)-1H-1,2,4-triazol-3-yl)phenyl)-3-(3-(2-(1-methoxyethyl)-5-methylphenyl)-4-oxothiazolidin-2-ylidene)urea]: the pest or weed control at 200 µg/mL in series [1] is 0 to 80%. Besides, the pest or weed control at 50 µg/cm2 in series [2] and in series [3] was 50 to 100% each time.

With `CC(C)c1ccc(C#N)cc1N1C(=O)CS/C1=N\C(=O)Nc1ccc(-c2ncn(-c3ccc(OC(F)(F)F)cc3)n2)cc1F` [Compound J76, (Z)-1-(3-(5-Cyano-2-isopropylphenyl)-4-oxothiazolidin-2-ylidene)-3-(2-fluoro-4-(1-(4-(trifluoromethoxy)phenyl)-1H-1,2,4-triazol-3-yl)phenyl)urea], the pest or weed control at 200 µg/mL in series [1] was in the range of 0 to 80%.

For `CCOc1ccc(C(C)C)c(N2C(=O)CS/C2=N\C(=O)Nc2ccc(-c3ncn(-c4ccc(OC(F)(F)F)cc4)n3)cc2F)c1` [Compound J191, (Z)-1-(3-(5-Ethoxy-2-isopropylphenyl)-4-oxothiazolidin-2-ylidene)-3-(2-fluoro-4-(1-(4-(trifluoromethoxy)phenyl)-1H-1,2,4-triazol-3-yl)phenyl)urea], in series [1], the pest or weed control at 200 µg/mL is 0 to 80%.

As to `Cc1ccc(-c2ccccc2)c(N2C(=O)CS/C2=N\C(=O)Nc2ccc(-c3ncn(-c4ccc(OC(F)(F)F)cc4)n3)cc2F)c1` [Compound J785, (Z)-1-(2-Fluoro-4-(1-(4-(trifluoromethoxy)phenyl)-1H-1,2,4-triazol-3-yl)phenyl)-3-(3-(4-methyl-[1,1′-biphenyl]-2-yl)-4-oxothiazolidin-2-ylidene)urea], in series [1] (Table ABC, species GPA, foliar spray on infested cabbage seedlings), the “GPA rating (% control or mortality class)” value was “D (No activity noticed in this bioassay)”.

Turning to “(Z)-1-(2-Fluoro-4-(1-(4-(trifluoromethoxy)phenyl)-1H-1,2,4-triazol-3-yl)phenyl)-3-(3-(5-methyl-2-((thiophen-3-ylmethoxy)methyl)phenyl)-4-oxothiazolidin-2-ylidene)urea [Compound J623]”, the BAW rating result in series [2] is “A (50-100)”. Further, in series [3], the CL rating entry is “A (50-100)”.

For the molecule “(Z)-1-(3-(5-(Dimethylamino)-2-isopropylphenyl)-4-oxothiazolidin-2-ylidene)-3-(2-fluoro-4-(1-(6-(trifluoromethyl)pyridazin-3-yl))-1H-1,2,4-triazol-3-yl)phenyl)urea [Compound J393]”, in series [2], the BAW rating entry is “A (50-100)”. Further, the CL rating entry in series [3] is given as “A (50-100)”.

As to “(Z)-1-(3-(5-ethoxy-2-((2,2,2-trifluoroethoxy)methyl)phenyl)-4-oxothiazolidin-2-ylidene)-3-(2-methyl-4-(1-(4-(trifluoromethoxy)phenyl))-1H-1,2,4-triazol-3-yl)phenyl)urea [Compound J575]”, in series [2], the BAW rating entry was “A (50-100)”. In series [3], the CL rating entry is given as “A (50-100)”.
